The target in the test is chymotrypsin (Bos taurus, UniProt P00766). Kind of test: Determination of enzyme inhibitory activity against chymotrypsin (substrate AAPFpNA, OD 405 nm). Format: biochemical. The following applies: for IC50: chymotrypsin 30 nM, AAPFpNA 0.5 mM, pH 7.8, 37° C.; for remaining activity at 0.0001 µM: peptide 0.0001 μM; for remaining activity at 0.001 µM: peptide 0.001 μM; for remaining activity at 0.01 µM: peptide 0.01 μM; for remaining activity at 0.1 µM: peptide 0.1 μM; for remaining activity at 0.5 µM: peptide 0.5 μM; for remaining activity at 1 µM: peptide 1 μM; for remaining activity at 10 µM: peptide 10 μM; for remaining activity at 100 µM: peptide 100 μM; for remaining activity at 0.2 µM: peptide 0.2 μM; for remaining activity at 0.4 µM: peptide 0.4 μM; for remaining activity at 0.02 µM: peptide 0.02 μM; for remaining activity at 0.04 µM: peptide 0.04 μM; for remaining activity at 0.08 µM: peptide 0.08 μM. Here is the method: The substrates N-succinyl-Ala-Ala-Pro-Phe-p-nitroaniline (AAPFpNA) is used in competitive binding reaction to determine the inhibitory activities against α -chymotrypsin. Experiments for a-chymotrypsin was measured in 20 mM CaCl2, 50 mM Tris-HCl buffer (pH 7.8). The concentration of the peptide was measured using optical density (OD) at 280 nm. The Michaelis constant (Km) of the enzyme hydrolysis substrate is calculated from the initial rate of substrate hydrolysis at 405 nm. The absorbance value of the substrate was measured at 405 nm after complete hydrolysis. All data were processed using nonlinear regression.
(1) Added a total 190 μL of reaction buffer (20 mM CaCl2, 50 mM Tris-HCl (pH 7.8)), different concentrations of anti-chymorypsin peptides (CHs) into the pre-cold 96 well plate, followed by preheating at 37° C. for 5 min and centrifugated at 500 rpm for 1 min and allowed to stand for 4 minutes. Then added 8 μL of 750 nM chymotrypsin and incubated at 37° C. for 10 min, and centrifugated at 500 rpm for 1 min and allowed to stand for 9 minutes. Finally, added 2 μL of 50 mM AAPFpNA, and mixed by centrifugation at 500 rpm for 1 min. The plate was incubated at 37° C. for 90 min, and the absorbance value at 405 nm was measured. Three repetitions were made, and only reaction buffer and substrate were added in the blank control as the minimum absorption value (Min OD 405 nm); Only reaction buffer, enzyme and substrate were added in the negative control as the maximum absorption value (Max OD 405 nm).
(2) In the 200 μL of reaction system, the final concentrations of chymotrypsin and AAPFpNA were 30 nM and 0.5 mM, respectively.
Plotted the residual activity of enzyme with […] to obtain the half inhibitory concentration (IC50) of anti-chymorypsin peptides (CHs). Then, substituted it into the formula […]/(1+S/Km) (S, IC50, and Km were substrate concentration, half inhibitory concentration, and Michaelis constant, respectively) to obtain the inhibition constant Ki of anti-chymorypsin peptides (CHs).

[1] abbreviates: read-out: Residual activity of chymotrypsin.

Results on nine molecules are retold here after patent US20260242438A1 (INSTITUTE OF MATERIA MEDICA, CHINESE ACADEMY OF MEDICAL …, priority 2022, published 2026).

Structures are written as SMILES. Where a SMILES comes first, the peptide text is derived from it. Bridges are numbered along the chain shown (N, C = ends).

Regarding `CC[C@H](C)[C@@H]1NC(=O)[C@@H]2CCCN2C(=O)[C@@H]2CCCN2C(=O)[C@H]([C@@H](C)CC)NC(=O)[C@H](CO)NC(=O)[C@H](Cc2ccc(O)cc2)NC(=O)[C@H]([C@@H](C)O)NC(=O)[C@@H](NC(=O)[C@@H](NC(=O)CN)[C@@H](C)O)CSSC[C@@H](C(=O)N[C@@H](CC(N)=O)C(=O)N2CCC[C@H]2C(=O)O)NC1=O` [CH61] (H-GTCTYSIPPICNP-OH; disulfide 3-11; C-terminus assumed), the inhibition constant Ki – broadly, the equilibrium dissociation constant of an inhibitor or competing ligand from its target – is 50 nM and the IC50 (commonly the midpoint of a concentration-inhibition curve) came out at 120 nM. Besides, under setting [1], the remaining activity at 0.0001 µM was determined as 100.9 ± 0.6%, the remaining activity at 0.001 µM was found to be 100.1 ± 0.7%, the remaining activity at 0.01 µM was 97.3 ± 5.4% and the remaining activity at 0.1 µM worked out at 44.2 ± 4.5%. Moreover, under setting [1], the remaining activity at 0.5 µM came to 24.3 ± 2.5%, the remaining activity at 1 µM turned out to be 13.3 ± 1.7%, the remaining activity at 10 µM came out at 1.7% and the remaining activity at 100 µM stood at 0.2%. For the same molecule, the remaining activity at 0.05 µM (peptide 0.05 μM, read-out: Residual activity of chymotrypsin) worked out at 86.1 ± 3.3%.
The molecule `CC[C@H](C)[C@@H]1NC(=O)[C@@H]2CCCN2C(=O)[C@@H]2CCCN2C(=O)[C@H]([C@@H](C)CC)NC(=O)[C@H](CO)NC(=O)[C@H](Cc2ccc(O)cc2)NC(=O)[C@H]([C@@H](C)O)NC(=O)[C@@H](NC(=O)[C@@H](N)CCCNC(=N)N)CSSC[C@@H](C(=O)N[C@@H](Cc2ccccc2)C(=O)O)NC1=O` [CH58] (H-RCTYSIPPICF-OH; disulfide 2-10; C-terminus assumed) showed a Ki of 120 nM and an IC50 of 270 nM.
With `CC[C@H](C)[C@@H]1NC(=O)[C@H](CO)NC(=O)[C@H](Cc2ccc(O)cc2)NC(=O)[C@H]([C@@H](C)O)NC(=O)[C@@H](NC(=O)[C@@H]2CCCN2)CSSC[C@@H](C(=O)N[C@@H](Cc2ccc(O)cc2)C(=O)O)NC(=O)[C@H](CCC(N)=O)NC(=O)[C@@H]2CCCN2C(=O)[C@@H]2CCCN2C1=O` [CH51] (H-PCTYSIPPQCY-OH; disulfide 2-10; C-terminus assumed), the Ki came out at 200 nM and 460 nM corresponded to half-maximal inhibition (IC50). Also, under setting [1], the remaining activity at 0.001 µM was determined as 100 ± 1.2%, the remaining activity at 0.01 µM is 100 ± 0.2%, the remaining activity at 0.1 µM was determined as 95.4 ± 2.2% and the remaining activity at 0.2 µM stood at 80.3 ± 3.9%. For the same molecule, under setting [1], the remaining activity at 0.4 µM was found to be 54.2 ± 1.8%, the remaining activity at 1 µM was 24.3 ± 2.4%, the remaining activity at 10 µM is 3 ± 0.2% and the remaining activity at 100 µM amounted to 0.3%. The remaining activity at 0.8 µM (peptide 0.8 μM, read-out: Residual activity of chymotrypsin) was determined as 31.2 ± 1.6%. Moreover, the “inhibitory activity reduced (fold)” value (relative to CH10) is ~7 times.
Molecule `CC[C@H](C)[C@@H]1NC(=O)[C@@H]2CCCN2C(=O)[C@@H]2CCCN2C(=O)[C@H]([C@@H](C)CC)NC(=O)[C@H](CO)NC(=O)[C@H](Cc2ccccc2)NC(=O)[C@H]([C@@H](C)O)NC(=O)[C@@H](NC(=O)[C@H](CCCNC(=N)N)NC(=O)CN)CSSC[C@@H](C(=O)N[C@@H](Cc2ccccc2)C(=O)N2CCC[C@H]2C(=O)N[C@@H](CC(=O)O)C(=O)O)NC1=O` [CH54] (H-GRCTFSIPPICFPD-OH; disulfide 3-11; C-terminus assumed) showed a Ki of 10 nM and an IC50 of 30 nM. Besides, under setting [1], the remaining activity at 0.0001 µM stood at 100.6 ± 0.9%, the remaining activity at 0.001 µM worked out at 101.7 ± 0.6%, the remaining activity at 0.01 µM came out at 100 ± 2.9% and the remaining activity at 0.02 µM was determined as 68.8 ± 4%. Besides, under setting [1], the remaining activity at 0.04 µM is 34.2 ± 3.9%, the remaining activity at 0.08 µM turned out to be 15.2 ± 1.9%, the remaining activity at 0.1 µM came out at 13.8 ± 3.3% and the remaining activity at 1 µM was 0.4 ± 0.2%. For the same molecule, the remaining activity at 10 µM under setting [1] was -0.1%.
Turning to `CC[C@H](C)[C@@H]1NC(=O)[C@@H]2CCCN2C(=O)[C@@H]2CCCN2C(=O)[C@H]([C@@H](C)CC)NC(=O)[C@H](CO)NC(=O)[C@H](Cc2ccc(O)cc2)NC(=O)[C@H]([C@@H](C)O)NC(=O)[C@H](C)NC(=O)[C@H](CCCNC(=N)N)NC(=O)CNC(=O)[C@@H](N)CSSC[C@@H](C(=O)N[C@@H](Cc2ccccc2)C(=O)N2CCC[C@H]2C(=O)O)NC1=O` [CH66] (H-CGRATYSIPPICFP-OH; disulfide 1-12; C-terminus assumed), the inhibitory constant (Ki) came to 280 nM and half-maximal inhibition (IC50) was put at 650 nM.
`CC[C@H](C)[C@@H]1NC(=O)[C@H](CO)NC(=O)[C@H](Cc2ccc(O)cc2)NC(=O)[C@H]([C@@H](C)O)NC(=O)[C@@H](NC(=O)[C@@H](N)Cc2ccccc2)CSSC[C@@H](C(=O)N[C@@H](Cc2ccc(O)cc2)C(=O)N[C@@H](C)C(=O)O)NC(=O)[C@H](CCC(N)=O)NC(=O)[C@@H]2CCCN2C(=O)[C@@H]2CCCN2C1=O` [CH34] (H-FCTYSIPPQCYA-OH; disulfide 2-10; C-terminus assumed) returned an inhibitory constant (Ki) of 160 nM and a half-inhibitory concentration (IC50) of 370 nM. For the same molecule, under setting [1], the remaining activity at 0.001 µM stood at 102.3 ± 0.8%, the remaining activity at 0.01 µM was 104.1 ± 0.5%, the remaining activity at 0.1 µM was found to be 104.8 ± 0.6% and the remaining activity at 0.2 µM was 78.5 ± 2.5%. Under setting [1], the remaining activity at 0.4 µM worked out at 45.5 ± 1.5%, the remaining activity at 1 µM came to 17.8 ± 0.9%, the remaining activity at 10 µM turned out to be 1.2 ± 0.1% and the remaining activity at 100 µM was 0.1%. The remaining activity at 0.75 µM (peptide 0.75 μM, read-out: Residual activity of chymotrypsin) is 24.5 ± 0.9%.
Molecule `CC[C@H](C)[C@@H]1NC(=O)[C@@H]2CCCN2C(=O)[C@@H]2CCCN2C(=O)[C@H]([C@@H](C)CC)NC(=O)[C@H](CO)NC(=O)[C@H](Cc2ccccc2)NC(=O)[C@H]([C@@H](C)O)NC(=O)[C@@H](NC(=O)[C@@H](NC(=O)CN)[C@@H](C)O)CSSC[C@@H](C(=O)N[C@@H](CC(N)=O)C(=O)N2CCC[C@H]2C(=O)N[C@@H](CC(N)=O)C(=O)O)NC1=O` [CH59] (H-GTCTFSIPPICNPN-OH; disulfide 3-11; C-terminus assumed) registered an inhibition constant (Ki) of 80 nM and an IC50 of 180 nM.
Turning to `CC[C@H](C)[C@@H]1NC(=O)[C@@H]2CCCN2C(=O)[C@@H]2CCCN2C(=O)[C@H]([C@@H](C)CC)NC(=O)[C@H](CO)NC(=O)[C@H](Cc2ccc(O)cc2)NC(=O)[C@H]([C@@H](C)O)NC(=O)[C@@H](NC(=O)[C@H](CCCNC(=N)N)NC(=O)CN)CSSC[C@@H](C(=O)N[C@@H](Cc2ccccc2)C(=O)N2CCC[C@H]2C(=O)N[C@@H](CC(=O)O)C(=O)O)NC1=O` [CH55] (H-GRCTYSIPPICFPD-OH; disulfide 3-11; C-terminus assumed), the Ki was determined as 8.6 nM and half-maximal inhibition (IC50) required 20 nM. In addition, under setting [1], the remaining activity at 0.0001 µM is 102.1 ± 1%, the remaining activity at 0.001 µM came out at 101.6 ± 0.9%, the remaining activity at 0.02 µM worked out at 45.8 ± 10% and the remaining activity at 0.04 µM is 21.8 ± 4.2%. In addition, under setting [1], the remaining activity at 0.08 µM came to 11.6 ± 1.2%, the remaining activity at 0.1 µM was 8 ± 2.4%, the remaining activity at 1 µM was found to be 0.9 ± 0.1% and the remaining activity at 10 µM is 0.1%. Where the note is “peptide 0.015 μM, read-out: Residual activity of chymotrypsin”, the remaining activity at 0.015 µM was 68.1 ± 3.7%.
For `CC[C@H](C)[C@@H]1NC(=O)[C@H](CO)NC(=O)[C@H](Cc2ccc(O)cc2)NC(=O)[C@H]([C@@H](C)O)NC(=O)[C@@H](NC(=O)[C@H](C)N)CSSC[C@@H](C(=O)N[C@@H](Cc2ccccc2)C(=O)O)NC(=O)[C@H](CCCCN)NC(=O)[C@H](C)NC(=O)[C@@H]2CCCN2C1=O` [CH18] (H-ACTYSIPAKCF-OH; disulfide 2-10; C-terminus assumed), the affinity, expressed as Ki, was 200 nM and inhibition was half-maximal at 470 nM (IC50). Under setting [1], the remaining activity at 0.001 µM was determined as 103.6 ± 0.2%, the remaining activity at 0.01 µM is 102 ± 3.7%, the remaining activity at 0.1 µM was 102 ± 2.4% and the remaining activity at 0.2 µM was 90.3 ± 4.1%. Under setting [1], the remaining activity at 0.5 µM worked out at 49.4 ± 3.7%, the remaining activity at 10 µM was 3.4 ± 0.5% and the remaining activity at 100 µM is 0.3 ± 0.1%. For the same molecule, for the setting “peptide 2.5 μM, read-out: Residual activity of chymotrypsin”, the remaining activity at 2.5 µM came out at 3.7 ± 0.5%. In addition, the remaining activity at 1000 µM (peptide 1000 μM, read-out: Residual activity of chymotrypsin) came out at 0.1 ± 0.1%.
